Measurements published in article PMC2374539, “Anti-tumour effects and pharmacokinetic profile of 17-(5′ -isoxazolyl)androsta-4,16-dien-3-one (L-39) in mice: an inhibitor of androgen synthesis” (British Journal of Cancer, 2000).
Values joined by “and” are separate entries in the source; they are usually repeats but may differ in a detail not shown here. Equal entries are not always repeated. “Also recorded” adds a separate entry of the source.

Legend:
T and DHT concentrations = assay: Testosterone and DHT RIA in serum and PC-82 tumours of treated mice; assay type: in vivo, male athymic Ncr-nu mice; conditions: 50 mg kg-1 day-1, s.c., 28 days, P < 0.05
Excerpt: (§1) Prostate cancer is second only to lung cancer as the leading cause of death and is the most prevalent cancer amongst men in the USA and Europe and accounts for about a third of all cancers diagnosed each year in men. In the UK, the incidence of prostate cancer has almost doubled over the last 30 years. Similarly, in 1998, it was estimated that more than 334 500 cases were diagnosed and more than 41 800 men died of the disease in the USA (Dijkman and Debruyne, 1996). The prostate gland is under the influence of androgens and often becomes enlarged in older men. […] Localized prostate cancer is curable and although the metastatic form of the disease is difficult to manage, endocrine therapy does reduce the death rate from the disease and is first-line treatment for all patients. In the testis and adrenals, 17-hydroxylase/C17,20 -lyase converts the C21 steroid precursors to the corresponding C19 andro- gens. […] Both T and DHT stimu- late prostatic growth, although DHT plays a much more important role than T in the organogenesis and homeostasis of the prostate (Wilson, 1996). […] Androgen- dependent human prostate cancer xenografts (PC-82) were grown in nude mice and the effects of L-39 (50 mg kg-1 day-1 ) on tumour growth and prostate-specific antigen (PSA) levels were determined after 28 days. […] We also evaluated the pharmacokinetic properties of L-39 in male mice in this investigation. […]

[1] = biological target: T1, 5α-reductase in human prostatic microsomes (Homo sapiens, UniProt P31213); assay: 5α-Reductase assay in human prostatic (BPH) microsomes; assay type: biochemical
T1 sequence (P31213 1-254): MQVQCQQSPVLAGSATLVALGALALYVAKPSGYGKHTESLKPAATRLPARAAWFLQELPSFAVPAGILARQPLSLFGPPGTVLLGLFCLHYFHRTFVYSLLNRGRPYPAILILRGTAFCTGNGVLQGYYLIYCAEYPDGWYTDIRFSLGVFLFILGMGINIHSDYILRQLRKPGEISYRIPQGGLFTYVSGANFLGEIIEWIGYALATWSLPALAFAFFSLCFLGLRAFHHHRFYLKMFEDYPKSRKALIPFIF
Excerpt: (§2) Prostate cancer is second only to lung cancer as the leading cause of death and is the most prevalent cancer amongst men in the USA and Europe and accounts for about a third of all cancers diagnosed each year in men. In the UK, the incidence of prostate cancer has almost doubled over the last 30 years. Similarly, in 1998, it was estimated that more than 334 500 cases were diagnosed and more than 41 800 men died of the disease in the USA (Dijkman and Debruyne, 1996). The prostate gland is under the influence of androgens and often becomes enlarged in older men. […] Localized prostate cancer is curable and although the metastatic form of the disease is difficult to manage, endocrine therapy does reduce the death rate from the disease and is first-line treatment for all patients. In the testis and adrenals, 17-hydroxylase/C17,20 -lyase converts the C21 steroid precursors to the corresponding C19 andro- gens. […] Both T and DHT stimu- late prostatic growth, although DHT plays a much more important role than T in the organogenesis and homeostasis of the prostate (Wilson, 1996). Current endocrine therapies such as orchidectomy and luteinizing hormone releasing hormone (LHRH) agonists result in reduced androgen production by the testis and are useful in the early stages of prostate cancer. However, these treatment options fail to alter androgen production by the adrenals that may contribute androgen precursors to the prostate. The addition of flutamide, an anti-androgen to inhibit the action of androgens on the prostate, is only partially effective as the disease frequently progresses due to mutations in the androgen receptor, which can utilize flutamide as an agonist. […] Androgen- dependent human prostate cancer xenografts (PC-82) were grown in nude mice and the effects of L-39 (50 mg kg-1 day-1 ) on tumour growth and prostate-specific antigen (PSA) levels were determined after 28 days. […] We also evaluated the pharmacokinetic properties of L-39 in male mice in this investigation. […]

[2] = biological target: T2, human testicular microsomal 17α-hydroxylase/C17,20-lyase (Homo sapiens, UniProt P05093); assay: Inhibition of 17α-hydroxylase/C17,20-lyase activity in human testicular microsomes ([3H]-acetic acid release); assay type: biochemical
T2 construct: Testicular and prostatic microsomes were prepared as described previously; from tissue; host or cells: human testis, microsomal fraction
T2 sequence (P05093 1-508): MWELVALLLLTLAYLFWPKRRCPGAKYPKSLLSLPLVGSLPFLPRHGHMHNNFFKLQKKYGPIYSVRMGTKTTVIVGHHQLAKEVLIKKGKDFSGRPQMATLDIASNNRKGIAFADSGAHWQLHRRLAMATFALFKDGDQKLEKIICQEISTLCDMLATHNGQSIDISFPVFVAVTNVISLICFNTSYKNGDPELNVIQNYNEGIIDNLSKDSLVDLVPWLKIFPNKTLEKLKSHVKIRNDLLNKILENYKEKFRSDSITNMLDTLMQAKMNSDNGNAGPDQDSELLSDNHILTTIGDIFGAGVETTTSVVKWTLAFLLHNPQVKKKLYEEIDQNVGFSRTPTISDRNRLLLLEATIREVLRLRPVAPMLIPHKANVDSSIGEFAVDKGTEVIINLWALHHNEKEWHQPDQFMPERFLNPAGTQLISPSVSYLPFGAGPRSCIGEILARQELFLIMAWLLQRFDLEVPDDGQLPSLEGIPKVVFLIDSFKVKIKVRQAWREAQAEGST
Excerpt: as §2

Solubility in water = assay type: physicochemical
[3] = test system: prostate-specific antigen (PSA) levels; assay: PSA ELISA in serum and PC-82 tumours of treated mice; assay type: in vivo, male athymic Ncr-nu mice; conditions: 50 mg kg-1 day-1, s.c., 28 days, P < 0.01
Excerpt: as §1

[4] = test system: PC-82 human prostate cancer xenografts; assay: Human PC-82 prostate cancer xenograft model: tumour volume and weight; assay type: in vivo, male athymic Ncr-nu mice
Excerpt: as §2

[5] = Pharmacokinetic studies after a single s.c. or i.v. bolus dose, plasma HPLC; assay type: in vivo, male Balb/c mice; set-up: AUC0- / Cmax: unit not given here
Excerpt: Prostate cancer is second only to lung cancer as the leading cause of death and is the most prevalent cancer amongst men in the USA and Europe and accounts for about a third of all cancers diagnosed each year in men. In the UK, the incidence of prostate cancer has almost doubled over the last 30 years. Similarly, in 1998, it was estimated that more than 334 500 cases were diagnosed and more than 41 800 men died of the disease in the USA (Dijkman and Debruyne, 1996). The prostate gland is under the influence of androgens and often becomes enlarged in older men. […] Localized prostate cancer is curable and although the metastatic form of the disease is difficult to manage, endocrine therapy does reduce the death rate from the disease and is first-line treatment for all patients. In the testis and adrenals, 17-hydroxylase/C17,20 -lyase converts the C21 steroid precursors to the corresponding C19 andro- gens. […] Both T and DHT stimu- late prostatic growth, although DHT plays a much more important role than T in the organogenesis and homeostasis of the prostate (Wilson, 1996). Current endocrine therapies such as orchidectomy and luteinizing hormone releasing hormone (LHRH) agonists result in reduced androgen production by the testis and are useful in the early stages of prostate cancer. However, these treatment options fail to alter androgen production by the adrenals that may contribute androgen precursors to the prostate. The addition of flutamide, an anti-androgen to inhibit the action of androgens on the prostate, is only partially effective as the disease frequently progresses due to mutations in the androgen receptor, which can utilize flutamide as an agonist. […] This may be achieved through dual inhibition of 17- hydroxylase/C17,20 -lyase and 5-reductase (Li et al, 1992; Klus et al, 1996). […] Androgen- dependent human prostate cancer xenografts (PC-82) were grown in nude mice and the effects of L-39 (50 mg kg-1 day-1 ) on tumour growth and prostate-specific antigen (PSA) levels were determined after 28 days. […] Pharmacokinetic studies were also conducted in male Balb/c mice. […] (c) 2000 Cancer Research Campaign Keywords: 17-hydroxylase/C17,20 -lyase; 5-reductase; androgens; prostate cancer; pharmacokinetics 74 Received 9 November 1999 Revised 4 February 2000 Accepted 10 February 2000 Correspondence to: AM Brodie British Journal of Cancer (2000) 83(1), 74-82 (c) 2000 Cancer Research Campaign doi: 10.1054/ bjoc.2000.1136, available online at http://www.idealibrary.com on *Present address: Department of Pharmaceutical Sciences, Temple University School of Pharmacy, Philadelphia, PA 19140, USA. Present address: School of Pharmaceutical Sciences, Beijing Medical University, China. Effects of L-39 in vitro and in vivo 75 British Journal of Cancer (2000) 83(1), 74-82 (c) 2000 Cancer Research Campaign advanced prostate cancer (Small et al, 1997). […] 5-Reductase occurs in two isoforms namely, type I and type II. The type II isoenzyme is the predominant form in the human prostate. […] In the present investigation, we describe the effects of L-39, a novel androstene derivative, in vitro and on human prostate cancer xenografts in nude mice. We also evaluated the pharmacokinetic properties of L-39 in male mice in this investigation. […] [21-3 H]-17-hydroxy- pregnenolone ([…] ) was prepared in our laboratory as previously described (Njar et al, 1998). [1,2,6,7-3 H]- Testosterone (96.5 Ci mmol-1 ) and [4-14 C]-dihydrotestosterone (56.5 mCi mmol-1 ) were obtained from Dupont (Boston, MA, USA).

[6] = Gross examination of vital organs, organ and body weights after treatment; assay type: in vivo, male athymic Ncr-nu mice; conditions: 50 mg kg-1 daily, s.c., 28 days
Excerpt: as §1

androgen receptors = test system: androgen receptors; set-up: method as in Long et al, 1999; conditions: L-39 5 μM, R1881 5 nM, LNCaP cultures; ref Long et al, 1999; cited from earlier work
[7] = test system: LNCaP human prostate cancer cells; set-up: method as in Long et al, 1999; conditions: ref Long et al, 1999; cited from earlier work
[8] = test system: LNCaP human prostatic cells grown as tumours; set-up: method as in Long et al, 1999; conditions: ref Long et al, 1999; cited from earlier work
[9] = biological target: T2, human testicular microsomal 17α-hydroxylase/C17,20-lyase; set-up: method as in Nnane et al, 1998; conditions: ref Nnane et al, 1998; cited from earlier work
[10] = intravenous 50 mg kg-1, single bolus, mouse plasma
[11] = subcutaneous 50 mg kg-1, single bolus, mouse plasma
[12] = subcutaneous 100 mg kg-1, single bolus, mouse plasma

C[C@]12CCC(=O)C=C1CC[C@@H]1[C@@H]2CC[C@]2(C)C(c3ccno3)=CC[C@@H]12 [L-39, 17-(5′-Isoxazolyl)androsta-4,16-dien-3-one]
reduction of DHT concentration in PC-82 tumour xenografts (T and DHT concentrations): 94%
reduction of T concentration in PC-82 tumour xenografts (T and DHT concentrations): 64%
type of inhibition of 5α-reductase [1]: competitive
Ki ([1]; Lineweaver-Burke slopes, read-out: Ki, inhibition of 5α-reductase): 28 nM
IC50 ([1]; T 40 nM, 10 min, pH 7.4, read-out: IC50, inhibition of 5α-reductase): 33 nM
type of inhibition of 17α-hydroxylase/C17,20-lyase [2]: non-competitive
Ki ([2]; Lineweaver-Burke slopes): 22 nM
IC50 ([2]; substrate 17-hydroxypregnenolone, 1 h, pH 7.4): 59 nM
solubility in water (Solubility in water): poorly soluble in water
reduction of tumour PSA levels [3]: 50%
diminution of PC-82 tumour weights ([4]; 50 mg kg-1 daily, s.c., 28 days, vs control): 70%
increase in tumour volume over 28 days ([4]; 50 mg kg-1 daily, s.c., control increased twofold): 1.25 fold
potency in reducing growth of PC-82 tumour xenografts, compared with other therapies ([4]; 50 mg kg-1 day-1, s.c., 28 days): to a similar extent as castration or flutamide treatment
metabolism in mice ([5]; initial observations, metabolite not characterized): metabolized to a more polar metabolite
time after intravenous administration at which L-39 was not detectable in plasma ([5]; intravenous 50 mg kg-1): 4 h
AUC0- [5, 10]: 14.41
CI (total clearance) [5, 10]: 3.47 0.14 l h-1 kg-1 and 3.5 l h-1 kg-1
Kel (terminal elimination rate constant) [5, 10]: 1.05 0.05 h-1 and 1.052 h-1
MTR [5, 10]: 1.15 h
T1/2 [5, 10]: 0.66 h
Vd [5, 10]: 3.30 0.13 l kg-1
AUC0- [5, 11]: 4.09
CI (total clearance) [5, 11]: 12.24 0.48 l h-1 kg-1
Cmax [5, 11]: 1.42
Kel [5, 11]: 0.46 0.02 h-1
MTR [5, 11]: 2.52 h
T1/2 [5, 11]: 1.51 h
Tmax [5, 11]: 0.75 h
Vd [5, 11]: 26.73 1.04 l kg-1
AUC0- [5, 12]: 4.04
CI (total clearance) [5, 12]: 24.78 1.0 l h-1 kg-1
Cmax [5, 12]: 1.30
Kel [5, 12]: 0.53 0.03 h-1
MTR [5, 12]: 2.41 h
T1/2 [5, 12]: 1.31 h
Tmax [5, 12]: 1.0 h
Vd [5, 12]: 46.80 1.84 l kg-1
gross examination of liver, kidney, heart and adrenal gland [6]: did not reveal toxicity
weight of vital organs and body weight [6]: did not change significantly
anti-androgenic activity: binding of labelled R1881 to androgen receptors (androgen receptors): preventing the labelled synthetic androgen R1881 (5 n M) from binding to the androgen receptors
proliferation of LNCaP cells in culture [7]: inhibits proliferation
growth of LNCaP tumours in male SCID mice [8]: effective at slowing LNCaP human prostatic cells grown in male SCID mice as tumours; also recorded: more effective than flutamide

CC(C)(C)NC(=O)[C@H]1CC[C@H]2[C@@H]3CC[C@H]4NC(=O)C=C[C@]4(C)[C@H]3CC[C@]12C [finasteride]
activity against 17-hydroxylase/C17,20-lyase [9]: no activity
